Peptide text beside a SMILES is read from it. Some results are limits rather than exact numbers.

One experiment addresses T1, CRF2R (Homo sapiens, UniProt Q13324).
T1 sequence (Q13324 1-411): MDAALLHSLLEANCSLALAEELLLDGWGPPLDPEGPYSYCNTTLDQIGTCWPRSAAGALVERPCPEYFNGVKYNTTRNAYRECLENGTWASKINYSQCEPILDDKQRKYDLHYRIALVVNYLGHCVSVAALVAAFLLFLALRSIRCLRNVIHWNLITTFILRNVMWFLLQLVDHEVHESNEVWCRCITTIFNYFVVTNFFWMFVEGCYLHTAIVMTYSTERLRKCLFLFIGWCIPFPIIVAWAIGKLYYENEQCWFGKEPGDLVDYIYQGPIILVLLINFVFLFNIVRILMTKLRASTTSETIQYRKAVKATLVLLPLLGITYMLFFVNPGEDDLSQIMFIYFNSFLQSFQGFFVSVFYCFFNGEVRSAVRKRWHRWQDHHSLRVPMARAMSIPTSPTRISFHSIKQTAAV
Put plainly: CRF2R agonist activation (EC50 / Emax), called comparative CRF binding. The class given is cell-based. As to conditions: for Emax: read-out: CRF2R Emax; for EC50: read-out: CRF2R EC50. The method in brief: (§1)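 CRFR-expressing cells + peptide vs vehicle; read-out cAMP (lysate assay) or CRE-linked reporter expression (luciferase, CAT, fluorescent protein, alkaline phosphatase, etc.). Signal compared against vehicle-treated cells.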

Another experiment concerns the target T2, CRF1R (Homo sapiens, UniProt P34998).
T2 sequence (P34998 24-415): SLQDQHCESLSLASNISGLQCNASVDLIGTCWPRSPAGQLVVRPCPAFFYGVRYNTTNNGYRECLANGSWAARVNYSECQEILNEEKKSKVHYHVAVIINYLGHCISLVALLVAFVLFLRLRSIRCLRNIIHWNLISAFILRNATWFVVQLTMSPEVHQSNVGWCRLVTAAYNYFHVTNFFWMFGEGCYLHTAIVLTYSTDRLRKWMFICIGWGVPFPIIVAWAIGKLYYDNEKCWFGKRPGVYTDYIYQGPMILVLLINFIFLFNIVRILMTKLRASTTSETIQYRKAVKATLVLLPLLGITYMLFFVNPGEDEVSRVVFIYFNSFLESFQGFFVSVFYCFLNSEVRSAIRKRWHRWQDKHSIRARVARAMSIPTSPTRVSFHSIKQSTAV
Put plainly: CRF1R agonist activation (EC50 / Emax), called comparative CRF binding. Particulars: for Emax: read-out: CRF1R Emax; for EC50: read-out: CRF1R EC50. The class given is cell-based. The method in brief: as §1

As a reminder, the Emax is the maximal effect, on the per cent scale that the assay sets. `CC[C@H](C)[C@H](N)C(=O)N[C@H](C(=O)N[C@@H](CC(C)C)C(=O)N[C@@H](CO)C(=O)N[C@@H](CC(C)C)C(=O)N[C@@H](CC(=O)O)C(=O)N[C@H](C(=O)N1CCC[C@H]1C(=O)N[C@H](C(=O)NCC(=O)N[C@@H](CC(C)C)C(=O)N[C@@H](CC(C)C)C(=O)N[C@@H](CCC(N)=O)C(=O)N[C@H](C(=O)N[C@@H](CC(C)C)C(=O)N[C@@H](CC(C)C)C(=O)N[C@@H](CCC(=O)O)C(=O)N[C@@H](CCCCN)C(=O)N[C@@H](C)C(=O)N[C@@H](C)C(=O)N[C@@H](C)C(=O)N[C@@H](CCC(=O)O)C(=O)N[C@@H](C)C(=O)N[C@@H](CCC(=O)O)C(=O)N[C@@H](C)C(=O)N[C@@H](C)C(=O)N[C@@H](C)C(=O)N[C@@H](CCCCN)C(=O)N[C@@H](C)C(=O)N[C@@H](C)C(=O)N[C@@H](CCC(N)=O)C(=O)N[C@@H](CCC(=O)O)C(=O)N[C@@H](CCC(N)=O)C(=O)N[C@H](C(=O)N[C@@H](CC(C)C)C(=O)N[C@@H](C)C(=O)N[C@@H](Cc1c[nH]cn1)C(=O)N[C@H](C(N)=O)C(C)C)[C@@H](C)CC)[C@@H](C)CC)[C@@H](C)CC)C(C)C)C(C)C` [compound 366] (H-IVLSLDVPIGLLQILLEKAAAEAEAAAKAAQEQILAHV-NH2): the Emax at CRF2R amounted to 46%; at CRF1R, 9%.

As a reminder, the EC50 is the concentration giving half of the maximal effect. As for `CC[C@H](C)[C@H](N)C(=O)N[C@H](C(=O)N[C@@H](CC(C)C)C(=O)N[C@@H](CO)C(=O)N[C@@H](CC(C)C)C(=O)N[C@@H](CC(=O)O)C(=O)N[C@H](C(=O)N1CCC[C@H]1C(=O)N[C@H](C(=O)NCC(=O)N[C@@H](CC(C)C)C(=O)N[C@@H](CC(C)C)C(=O)N[C@@H](CCC(N)=O)C(=O)N[C@H](C(=O)N[C@@H](CC(C)C)C(=O)N[C@@H](CC(C)C)C(=O)N[C@@H](CCC(=O)O)C(=O)N[C@@H](CCC(N)=O)C(=O)N[C@@H](C)C(=O)N[C@@H](CCCNC(=N)N)C(=O)N[C@@H](Cc1c[nH]cn1)C(=O)N[C@@H](C)C(=O)N[C@@H](C)C(=O)N[C@@H](C)C(=O)N[C@@H](Cc1c[nH]cn1)C(=O)N[C@@H](C)C(=O)N[C@@H](C)C(=O)N[C@@H](C)C(=O)N[C@@H](Cc1c[nH]cn1)C(=O)N[C@@H](C)C(=O)N[C@@H](CCC(N)=O)C(=O)N[C@@H](C)C(=O)N[C@@H](Cc1c[nH]cn1)C(=O)N[C@H](C(=O)N[C@@H](CC(C)C)C(=O)N[C@@H](C)C(=O)N[C@@H](Cc1c[nH]cn1)C(=O)N[C@H](C(N)=O)C(C)C)[C@@H](C)CC)[C@@H](C)CC)[C@@H](C)CC)C(C)C)C(C)C` [compound 367] (H-IVLSLDVPIGLLQILLEQARHAAAHAAAHAQAHILAHV-NH2), on CRF2R, the EC50 was not below 100 nM and the Emax is 18%. At CRF1R, the EC50 was not below 1000 nM and the maximum response (Emax) was determined as 6%.

`CC[C@H](C)[C@H](N)C(=O)N[C@H](C(=O)N[C@@H](CC(C)C)C(=O)N[C@@H](CO)C(=O)N[C@@H](CC(C)C)C(=O)N[C@@H](CC(=O)O)C(=O)N[C@H](C(=O)N1CCC[C@H]1C(=O)N[C@H](C(=O)NCC(=O)N[C@@H](CC(C)C)C(=O)N[C@@H](CC(C)C)C(=O)N[C@@H](CCC(N)=O)C(=O)N[C@H](C(=O)N[C@@H](CC(C)C)C(=O)N[C@@H](CC(C)C)C(=O)N[C@@H](CCC(=O)O)C(=O)N[C@@H](CCC(N)=O)C(=O)N[C@@H](C)C(=O)N[C@@H](CCCNC(=N)N)C(=O)N[C@@H](Cc1c[nH]cn1)C(=O)N[C@@H](C)C(=O)N[C@@H](Cc1c[nH]cn1)C(=O)N[C@@H](C)C(=O)N[C@@H](Cc1c[nH]cn1)C(=O)N[C@@H](C)C(=O)N[C@@H](Cc1c[nH]cn1)C(=O)N[C@@H](C)C(=O)N[C@@H](Cc1c[nH]cn1)C(=O)N[C@@H](C)C(=O)N[C@@H](CCC(N)=O)C(=O)N[C@@H](C)C(=O)N[C@@H](Cc1c[nH]cn1)C(=O)N[C@H](C(=O)N[C@@H](CC(C)C)C(=O)N[C@@H](C)C(=O)N[C@@H](Cc1c[nH]cn1)C(=O)N[C@H](C(N)=O)C(C)C)[C@@H](C)CC)[C@@H](C)CC)[C@@H](C)CC)C(C)C)C(C)C` [compound 369] (H-IVLSLDVPIGLLQILLEQARHAHAHAHAHAQAHILAHV-NH2): the figures for the Emax on CRF2R and at CRF1R were 18% and 4%, respectively.

Consider `CC[C@H](C)[C@H](N)C(=O)N[C@H](C(=O)N[C@@H](CC(C)C)C(=O)N[C@@H](CO)C(=O)N[C@@H](CC(C)C)C(=O)N[C@@H](CC(=O)O)C(=O)N[C@H](C(=O)N[C@@H](CO)C(=O)N[C@H](C(=O)NCC(=O)N[C@@H](CC(C)C)C(=O)N[C@@H](CC(C)C)C(=O)N[C@@H](CCC(N)=O)C(=O)N[C@H](C(=O)N[C@@H](CC(C)C)C(=O)N[C@@H](CC(C)C)C(=O)N[C@@H](CCC(=O)O)C(=O)N[C@@H](CCC(N)=O)C(=O)N[C@@H](C)C(=O)N[C@@H](CCCNC(=N)N)C(=O)N[C@@H](C)C(=O)N[C@@H](CCCNC(=N)N)C(=O)N[C@@H](C)C(=O)N[C@@H](C)C(=O)N[C@@H](CCCNC(=N)N)C(=O)N[C@@H](CCC(=O)O)C(=O)N[C@@H](CCC(N)=O)C(=O)N[C@@H](C)C(=O)N[C@H](C(=O)N[C@H](C(=O)N[C@@H](CC(N)=O)C(=O)N[C@@H](C)C(=O)N[C@@H](CCCNC(=N)N)C(=O)N[C@H](C(=O)N[C@@H](CC(C)C)C(=O)N[C@@H](C)C(=O)N[C@@H](CCCNC(=N)N)C(=O)N[C@H](C(N)=O)C(C)C)[C@@H](C)CC)[C@@H](C)O)[C@@H](C)O)[C@@H](C)CC)[C@@H](C)CC)C(C)C)C(C)C` [compound 370] (H-IVLSLDVSIGLLQILLEQARARAAREQATTNARILARV-NH2; N-terminus assumed), for which, at CRF2R, the EC50 is 51 nM and the Emax was 75%. For the same compound, at CRF1R, the EC50 is not below 1000 nM and the Emax was determined as 33%.

Regarding `CC[C@H](C)[C@H](N)C(=O)N[C@H](C(=O)N[C@@H](CC(C)C)C(=O)N[C@@H](CO)C(=O)N[C@@H](CC(C)C)C(=O)N[C@@H](CC(=O)O)C(=O)N[C@H](C(=O)N1CCC[C@H]1C(=O)N[C@H](C(=O)N[C@@H](Cc1c[nH]cn1)C(=O)N[C@@H](CC(C)C)C(=O)N[C@@H](CC(C)C)C(=O)N[C@@H](CCC(N)=O)C(=O)N[C@H](C(=O)N[C@@H](CC(C)C)C(=O)N[C@@H](CC(C)C)C(=O)N[C@@H](CCC(=O)O)C(=O)N[C@@H](CCC(N)=O)C(=O)N[C@@H](C)C(=O)N[C@@H](CCCNC(=N)N)C(=O)N[C@@H](C)C(=O)N[C@@H](CCCNC(=N)N)C(=O)N[C@@H](C)C(=O)N[C@@H](C)C(=O)N[C@@H](CCCNC(=N)N)C(=O)N[C@@H](CCC(=O)O)C(=O)N[C@@H](CCC(N)=O)C(=O)N[C@@H](C)C(=O)N[C@H](C(=O)N[C@H](C(=O)N[C@@H](CC(N)=O)C(=O)N[C@@H](C)C(=O)N[C@@H](CCCNC(=N)N)C(=O)N[C@H](C(=O)N[C@@H](CC(C)C)C(=O)N[C@@H](C)C(=O)N[C@@H](CCCNC(=N)N)C(=O)N[C@H](C(N)=O)C(C)C)[C@@H](C)CC)[C@@H](C)O)[C@@H](C)O)[C@@H](C)CC)[C@@H](C)CC)C(C)C)C(C)C` [compound 371] (H-IVLSLDVPIHLLQILLEQARARAAREQATTNARILARV-NH2; N-terminus assumed), the Emax on CRF2R is 97%; on CRF1R it was 22%.

Turning to `CC[C@H](C)[C@H](NC(=O)[C@H](CCCNC(=N)N)NC(=O)[C@H](C)NC(=O)[C@H](CC(N)=O)NC(=O)[C@H](CCC(N)=O)NC(=O)[C@H](CCC(=O)O)NC(=O)[C@H](C)NC(=O)[C@H](CCCNC(=N)N)NC(=O)[C@H](CCC(=O)O)NC(=O)[C@H](CCCNC(=N)N)NC(=O)[C@H](CCC(N)=O)NC(=O)[C@H](CO)NC(=O)[C@H](CCC(N)=O)NC(=O)[C@@H](NC(=O)[C@H](CCCCN)NC(=O)[C@H](CCC(=O)O)NC(=O)[C@H](CC(C)C)NC(=O)[C@H](CCC(=O)O)NC(=O)[C@H](CC(C)C)NC(=O)[C@H](CC(C)C)NC(=O)[C@@H](NC(=O)[C@H](CCCNC(=N)N)NC(=O)[C@H](CC(C)C)NC(=O)[C@H](CC(C)C)NC(=O)[C@H](CC(C)C)NC(=O)[C@H](CC(C)C)NC(=O)[C@@H]1CCCN1C(=O)[C@@H](NC(=O)[C@H](CC(=O)O)NC(=O)[C@@H](NC(=O)[C@H](CO)NC(=O)[C@H](CC(C)C)NC(=O)[C@H](CO)NC(=O)[C@@H]1CCCN1C(=O)[C@H](CC(N)=O)NC(=O)[C@@H](N)CC(=O)O)[C@@H](C)CC)C(C)C)[C@@H](C)O)[C@@H](C)O)C(=O)N[C@@H](Cc1ccccc1)C(=O)N[C@@H](C)C(=O)N[C@@H](CCCNC(=N)N)C(=O)N[C@H](C(N)=O)C(C)C` [compound 384] (H-DNPSLSIDVPLLLLRTLLELEKTQSQRERAEQNARIFARV-NH2; N-terminus assumed), the Emax at CRF2R was 97.3%; at CRF1R, 70.3%.
